Data taken from PubChem BioAssay (NCI).
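Protocol summary: plate cells (96-well), add compound at 5 concentrations, incubate 48 h, interpolate endpoints linearly. GI50 = concentration required for 50% inhibition of growth. The concentration for full growth arrest is given as TGI.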

Columns and labels:
Assay in all cases: NCI-60 cell line screen, 48 h
[1] = system: OVCAR-8 ovarian
[2] = system: IGROV1 ovarian
[3] = system: OVCAR-4 ovarian
[4] = system: ACHN renal
[5] = system: NCI-H522 lung
[6] = system: SNB-19 CNS
[7] = system: HCC-2998 colon
[8] = system: CAKI-1 renal
[9] = system: HCT-15 colon
[10] = system: SK-MEL-28 melanoma
[11] = system: KM12 colon
[12] = system: SF-268 CNS
[13] = system: HT29 colon
[14] = system: RXF 393 renal
[15] = system: A498 renal
[16] = system: SN12C renal
[17] = system: A549 NSCLC
[18] = system: SW-620 colon
[19] = system: T-47D breast
[20] = system: DU-145 prostate
[21] = system: SR leukemia
[22] = system: TK-10 renal
[23] = system: NCI-H460 lung
[24] = system: SF-295 CNS
[25] = system: SF-539 CNS
[26] = system: NCI/ADR-RES ovarian
[27] = system: BT-549 breast
[28] = system: HOP-62 NSCLC
[29] = system: SK-MEL-2 melanoma
[30] = system: SK-OV-3 ovarian
[31] = system: CCRF-CEM leukemia
[32] = system: PC-3 prostate
[33] = system: K-562 leukemia
[34] = system: U251 CNS
[35] = system: MCF7 breast
[36] = system: HOP-92 NSCLC
[37] = system: HL-60(TB) leukemia
[38] = system: MDA-MB-231 breast
[39] = system: MDA-MB-435
[40] = system: UACC-257 melanoma
[41] = system: OVCAR-5 ovarian
[42] = system: MALME-3M melanoma
[43] = system: COLO 205 colon
[44] = system: EKVX NSCLC
[45] = system: RPMI-8226 leukemia
[46] = system: LOX IMVI melanoma
[47] = system: 786-0 renal
[48] = system: NCI-H226 lung
[49] = system: NCI-H23 lung
[50] = system: HS 578T breast
[51] = system: OVCAR-3 ovarian
[52] = system: UACC-62 melanoma
[53] = system: M14 melanoma
[54] = system: SK-MEL-5 melanoma
[55] = system: MOLT-4 leukemia
[56] = system: HCT-116 colon
[57] = system: UO-31 renal
[58] = system: SNB-75 CNS

Question: What does the source list for `O=C(/C=C/c1cccs1)c1ccc(Nc2nc(Nc3ccc(F)cc3)nc(Nc3ccc(F)cc3)n2)cc1`?
Answer: GI50 [1]: 21.7 µM; TGI [1]: 51.2 µM; GI50 [2]: 18 µM; TGI [2]: 41 µM; GI50 [3]: 17.7 µM; TGI [3]: 46.2 µM; GI50 [4]: 86.5 µM; TGI [4]: > 100 µM; GI50 [5]: 20.5 µM; TGI [5]: 46.4 µM; GI50 [6]: 34.1 µM; TGI [6]: > 100 µM; GI50 [7]: 15.8 µM; TGI [7]: > 100 µM; GI50 [8]: 38.1 µM; TGI [8]: > 100 µM; GI50 [9]: 37.4 µM; TGI [9]: > 100 µM; GI50 [10]: 18.2 µM; TGI [10]: 39.1 µM; GI50 [11]: 16.3 µM; TGI [11]: 45.2 µM; GI50 [12]: 30.2 µM; TGI [12]: > 100 µM; GI50 [13]: 22.2 µM; TGI [13]: 70.5 µM; GI50 [14]: 23.3 µM; TGI [14]: 75.1 µM; GI50 [15]: 9.24 µM; TGI [15]: > 100 µM; GI50 [16]: > 100 µM; TGI [16]: > 100 µM; GI50 [17]: 3.87 µM; TGI [17]: 22.5 µM; GI50 [18]: 28.3 µM; TGI [18]: 96.4 µM; GI50 [19]: 15.2 µM; TGI [19]: 79.1 µM; GI50 [20]: 52.7 µM; TGI [20]: > 100 µM; GI50 [21]: 14.7 µM; TGI [21]: 60.1 µM; GI50 [22]: 40.4 µM; TGI [22]: > 100 µM; GI50 [23]: 20.4 µM; TGI [23]: > 100 µM; GI50 [24]: 20.4 µM; TGI [24]: 46.6 µM; GI50 [25]: 17.8 µM; TGI [25]: 35.7 µM; GI50 [26]: 31.3 µM; TGI [26]: > 100 µM; GI50 [27]: 16.7 µM; TGI [27]: 32.4 µM; GI50 [28]: > 100 µM; TGI [28]: > 100 µM; GI50 [29]: 44.4 µM; TGI [29]: > 100 µM; GI50 [30]: 56 µM; TGI [30]: > 100 µM; GI50 [31]: 40.9 µM; TGI [31]: > 100 µM; GI50 [32]: 19 µM; TGI [32]: 44.4 µM; GI50 [33]: 29.9 µM; TGI [33]: > 100 µM; GI50 [34]: 18.3 µM; TGI [34]: 35.4 µM; GI50 [35]: 14 µM; TGI [35]: 46.2 µM; GI50 [36]: 25.8 µM; TGI [36]: 57.8 µM; GI50 [37]: 62.2 µM; TGI [37]: > 100 µM; GI50 [38]: 34.7 µM; TGI [38]: > 100 µM; GI50 [39]: 24.5 µM; TGI [39]: 67.6 µM; GI50 [40]: 55.1 µM; TGI [40]: > 100 µM; GI50 [41]: > 100 µM; TGI [41]: > 100 µM; GI50 [42]: 40.4 µM; TGI [42]: > 100 µM; GI50 [43]: 12.5 µM; TGI [43]: 80.2 µM; GI50 [44]: 34.3 µM; TGI [44]: > 100 µM; GI50 [45]: 20.9 µM; TGI [45]: > 100 µM; GI50 [46]: 32.1 µM; TGI [46]: > 100 µM; GI50 [47]: 38.5 µM; TGI [47]: > 100 µM; GI50 [48]: > 100 µM; TGI [48]: > 100 µM; GI50 [49]: 24.2 µM; TGI [49]: 71.2 µM; GI50 [50]: 23.8 µM; TGI [50]: 74.3 µM; GI50 [51]: 17.7 µM; TGI [51]: 35.3 µM; GI50 [52]: > 100 µM; TGI [52]: > 100 µM; GI50 [53]: 29.7 µM; TGI [53]: > 100 µM; GI50 [54]: 56.4 µM; TGI [54]: > 100 µM; GI50 [55]: 29.1 µM; TGI [55]: > 100 µM; GI50 [56]: 23.6 µM; TGI [56]: > 100 µM; GI50 [57]: 19.5 µM; TGI [57]: 79.7 µM; GI50 [58]: 22.5 µM; TGI [58]: 70.4 µM
